In patent publication US20210024542A1 (Torcept Therapeutics, Inc., priority 2018, published 2021):
One block for each compound: values may come before it.

What was measured:
[1] = test system: SNU-C2B; assay: OncoPanel cell proliferation assay, SNU-C2B; type: cell-based, human; details: for Cell Count Activity Area: scale 0-10
Protocol: (§1) Cells were grown in RPMI 1640, 10% FBS, 2 mM L-alanyl-L-glutamine, 1 mM Na pyruvate, or a special medium. Cells were seeded into 384-well plates and incubated in a humidified atmosphere of 5% CO2 at 37° C. Compounds were added the day following cell seeding. At the same time, a time zero untreated cell plate was generated. After a 3-day incubation period, cells were fixed and stained to allow fluorescence imaging of nuclei. Compounds (1 mM stock solutions) were serially diluted in half-log steps from the highest test concentration ([…]), and assayed over 10 concentrations with a maximum assay concentration of 0.1% DMSO. Automated fluorescence microscopy was carried out using a Molecular Devices ImageXpress Micro XL high-content imager, and images were collected with a 4× objective. 16-bit TIFF images were acquired and analyzed with MetaXpress 5.1.0.41 software.
(§2) Cell proliferation was measured by the fluorescence intensity of an incorporated nuclear dye. The output is referred to as the relative cell count, where the measured nuclear intensity is transformed to percent of control (POC) using the following formula: […]
(§3) Cellular response parameters were calculated using nonlinear regression to a sigmoidal single-site dose response model:
(§4) Where y is a response measured at concentration x, A and B are the lower and upper limits of the response, C is the concentration at the response midpoint (EC50), and D is the Hill Slope (Ref. 1).
(§5) EC50 is the test compound concentration at the curve inflection point or half the effective response (parameter C of the fitted curve solution). GI50 is the concentration needed to reduce the observed growth by half (midway between the curve maximum and the time zero value). “Cell Count Activity Area” is an estimate of the integrated area above the curve (Barretina, et al. The Cancer Cell Line Encyclopedia enables predictive modelling of anticancer drug sensitivity. Nature 483: 603-607). […] In rare instances, values <0 or >10 may be observed. […] Curve-fitting, calculations, and report generation was performed using a custom data reduction engine and MathIQ based software (AIM).

[2] = test system: AsPC-1; assay: OncoPanel cell proliferation assay, AsPC-1; details: for Cell Count Activity Area: AsPC-1, scale 0-10
Protocol: (§6) Cells were seeded into 384-well plates and incubated in a humidified atmosphere of 5% CO2 at 37° C. Compounds were added the day following cell seeding. At the same time, a time zero untreated cell plate was generated. After a 3-day incubation period, cells were fixed and stained to allow fluorescence imaging of nuclei. Compounds (1 mM stock solutions) were serially diluted in half-log steps from the highest test concentration (1 micromol), and assayed over 10 concentrations with a maximum assay concentration of 0.1% DMSO. Automated fluorescence microscopy was carried out using a Molecular Devices ImageXpress Micro XL high-content imager, and images were collected with a 4× objective. 16-bit TIFF images were acquired and analyzed with MetaXpress 5.1.0.41 software.

[3] = test system: SNU-5; assay: OncoPanel cell proliferation assay, SNU-5; type: cell-based, human
Protocol: as §1, with “Cells” for “Cells were grown in RPMI 1640, 10% FBS, 2 mM L-alanyl-L-glutamine, 1 mM Na pyruvate, or a special medium. Cells”
as §2, §3, §4
GI50 is the concentration needed to reduce the observed growth by half (midway between the curve maximum and the time zero value). […] In rare instances, values <0 or >10 may be observed. […] Curve-fitting, calculations, and report generation was performed using a custom data reduction engine and MathIQ based software (AIM).

[4] = test system: Hs 729; assay: OncoPanel cell proliferation assay, Hs 729; type: cell-based, human; details: for Cell Count Activity Area: Hs 729, scale 0-10
Protocol: as §1, §2, §3, §4, §5

[5] = test system: SCaBER; assay: OncoPanel cell proliferation assay, SCaBER; type: cell-based, human; details: scale 0-10
Protocol: as §1, §2, §3, §4, §5

[6] = test system: U-138MG; assay: OncoPanel cell proliferation assay, U-138MG; type: cell-based, human; details: U-138MG; for Cell Count Activity Area: scale 0-10
Protocol: as §1, §2, §3, §4, §5

[7] = test system: MES-SA; assay: OncoPanel cell proliferation assay, MES-SA; type: cell-based, human; details: for Cell Count Activity Area: scale 0-10
Protocol: as §1, §2, §3, §4, §5

[8] = test system: CRO-AP2; assay: OncoPanel cell proliferation assay, CRO-AP2; type: cell-based, human; details: CRO-AP2, scale 0-10
Protocol: as §1, §2, §3, §4, §5

[9] = test system: RL95-2; assay: OncoPanel cell proliferation assay, RL95-2; type: cell-based, human; details: for Cell Count Activity Area: RL95-2, scale 0-10
Protocol: as §1, §2, §3, §4, §5

[10] = test system: SHP-77; assay: OncoPanel cell proliferation assay, SHP-77; details: for Cell Count Activity Area: SHP-77, scale 0-10
Protocol: as §6

[11] = test system: OVCAR3; assay: OncoPanel cell proliferation assay, OVCAR3; details: for Cell Count Activity Area: OVCAR3, scale 0-10
Protocol: as §6

[12] = test system: TF-1; assay: OncoPanel cell proliferation assay, TF-1; type: cell-based, human; details: for Cell Count Activity Area: TF-1, scale 0-10
Protocol: as §1, §2, §3, §4, §5

[13] = Homo sapiens, 72 h, 3-day incubation, read-out: Cell Count GI50

SMILES: CN[C@@H]1C[C@H]2O[C@@](C)([C@@H]1OC)n1c3ccccc3c3c4c(c5c6ccccc6n2c5c31)C(=O)NC4 [Staurosporine, reference compound]
Cell Count Activity Area [1]: 3.80
Cell Count Activity Area [2]: 3.28
Cell Count Activity Area ([3]; SNU-5, scale 0-10): 2.58
Cell Count Activity Area [4]: 4.06
Cell Count Activity Area [5]: 6.03
Cell Count Activity Area [6]: 3.72
GI50 [7, 13]: 13 nM
Cell Count Activity Area [7]: 2.80
Cell Count Activity Area [8]: 3.99
Cell Count Activity Area [9]: 3.87
Cell Count Activity Area [10]: 3.16
Cell Count Activity Area [11]: 3.41
Cell Count Activity Area [12]: 3.31

EC50 ([1]; Homo sapiens, 72 h, 3-day incubation, read-out: Cell Count EC50): > 1000 nM
GI50 [1, 13]: > 1000 nM
IC50 ([1]; Homo sapiens, 72 h, 3-day incubation, read-out: Cell Count IC50): > 1000 nM
EC50 ([2]; Homo sapiens, ASPC1, 72 h, read-out: Cell Count EC50): > 1000 nM
GI50 ([2]; Homo sapiens, ASPC1, 72 h, read-out: Cell Count GI50): > 1000 nM
IC50 ([2]; Homo sapiens, ASPC1, 72 h, read-out: Cell Count IC50): > 1000 nM
GI50 ([3]; Homo sapiens, 72 h, SNU-5, 3-day incubation, read-out: Cell Count GI50): 24 nM
IC50 ([3]; Homo sapiens, 72 h, SNU-5, 3-day incubation, read-out: Cell Count IC50): > 1000 nM
IC50 ([11]; Homo sapiens, OVCAR-3, 72 h, read-out: Cell Count IC50): > 1000 nM
SMILES: CO[C@H]1C[C@@H]2CC[C@@H](C)[C@@](O)(O2)C(=O)C(=O)N2CCCC[C@H]2C(=O)O[C@H]([C@H](C)C[C@@H]2CC[C@@H](O)[C@H](OC)C2)CC(=O)[C@H](C)/C=C(\C)[C@@H](O)[C@@H](OC)C(=O)[C@H](C)C[C@H](C)/C=C/C=C/C=C/1C [Rapamycin, reference compound]
Cell Count Activity Area [1]: 1.99
Cell Count Activity Area [2]: 1.48
EC50 ([4]; Homo sapiens, 72 h, Hs 729, 3-day incubation, read-out: Cell Count EC50): > 1000 nM
GI50 ([4]; Homo sapiens, 72 h, Hs 729, 3-day incubation, read-out: Cell Count GI50): > 1000 nM
IC50 ([4]; Homo sapiens, 72 h, Hs 729, 3-day incubation, read-out: Cell Count IC50): > 1000 nM
Cell Count Activity Area [4]: 0.55
Cell Count Activity Area [5]: 5.25
IC50 ([6]; Homo sapiens, U138-MG, 72 h, 3-day incubation, read-out: Cell Count IC50): > 1000 nM
Cell Count Activity Area [6]: 3.14
Cell Count Activity Area [7]: 5.39
Cell Count Activity Area [8]: 6.22
GI50 ([9]; Homo sapiens, 72 h, RL95-2, 3-day incubation, read-out: Cell Count GI50): 0.13 nM
IC50 ([9]; Homo sapiens, 72 h, RL95-2, 3-day incubation, read-out: Cell Count IC50): > 1000 nM
Cell Count Activity Area [9]: 4.24
EC50 ([10]; Homo sapiens, SHP77, 72 h, read-out: Cell Count EC50): > 1000 nM
GI50 ([10]; Homo sapiens, SHP77, 72 h, read-out: Cell Count GI50): > 1000 nM
IC50 ([10]; Homo sapiens, SHP77, 72 h, read-out: Cell Count IC50): > 1000 nM
Cell Count Activity Area [10]: 1.13
Cell Count Activity Area [11]: 2.08
EC50 ([12]; Homo sapiens, 72 h, TF-1, 3-day incubation, read-out: Cell Count EC50): > 1000 nM
GI50 ([12]; Homo sapiens, 72 h, TF-1, 3-day incubation, read-out: Cell Count GI50): > 1000 nM
IC50 ([12]; Homo sapiens, 72 h, TF-1, 3-day incubation, read-out: Cell Count IC50): > 1000 nM
Cell Count Activity Area [12]: 1.52
